A short description of data set [1]: in vivo. To be noted: ICR, mouse, plasma, po, 10 mg/kg.
Data set [2] is described as follows: in vivo. The note with it: ICR, mouse, plasma, po, 10 mg/kg. The source holds these as a separate data set.
Data set [3] can be described thus: in vitro. To be noted: human, liver microsomes. On the technique in general: Liver microsomes are a subcellular fraction often used to study metabolism.
Data set [4] in a line: in vitro. To be noted: rat, liver microsomes.
A short description of data set [5]: in vitro. To be noted: mouse, liver microsomes.

For `Cn1c(=O)n(CCCO)c(=O)c2c1nc(Oc1cccc(Cl)c1)n2Cc1ccc(Cl)cc1`, the concentration at 1 h in “in vivo [1]” amounted to 802 ng/mL. For the same compound, the concentration at 4 h in the data set “in vivo [2]” came out at 398 ng/mL. Also, the half-life at 1 h, 1 µM came to 117 min in “in vitro [3]”, 4 min in “in vitro [4]” and 12 min in “in vitro [5]”.
Regarding `Cn1c(=O)n(CCCO)c(=O)c2c1cc(C1CC1C1CCCC1)n2Cc1ccc(Cl)cc1` (stereo unspecified), the half-life at 1 h, 1 µM was 12 min in the data set “in vitro [3]”, 1 min in the data set “in vitro [4]” and 4 min in the data set “in vitro [5]”.
Turning to `Cn1c(=O)n(CCCO)c(=O)c2c1cc(/C=C/c1ccc(Cl)cc1)n2Cc1ccc(Cl)cc1`, the results for the half-life at 1 h, 1 µM in “in vitro [3]”, in “in vitro [4]” and in the data set “in vitro [5]” were 141 min, 40 min and 115 min, respectively.

Broadly, the half-life is how long it takes for the measured level to halve.
